Data taken from patent US6423689B1, “Peptidyl calcium channel blockers” (Warner-Lambert Company, priority 1997, dated 2002).
Read-outs that look alike come from different tables or passages of the source.

What was measured:
[1] = biological target: T1, N-type Ca2+ channels in IMR-32 cells (Homo sapiens, UniProt Q00975); test: Inhibition of N-type calcium flux in IMR-32 cells (Indo-1 fluorescence, nitrendipine present); format: cell-based; conditions: for IC50: IMR-32 cells, 5 μM nitrendipine, K+ depolarization; for inhibition at 1 µM / inhibition at 10 µM: IMR-32
T1 construct: host or cells: IMR-32 cells, differentiated with dibutyryl cAMP and bromodeoxyuridine
Summary of the method: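 With L-type flux blocked by 5 μM nitrendipine, N-type Ca2+ entry was read as the Indo-1 emission ratio (400/490 nm, excitation 350 nm) at 30° C after KCl depolarization.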

[2] = tested on: K+ channels in superior cervical ganglion (SCG) neurons; test: Whole-cell voltage clamp, K+ current in SCG neurons; format: cell-based, rat
Summary of the method: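 Percent inhibition of control amplitude at steady-state block is the read-out: peak inward Na+ current at 0 mV, sustained K+ current at +50 mV, 35 msec steps every 10 sec from −65 to −55 mV. Recordings used whole-cell clamp of trypsin-dissociated SCG neurons, pH 7.4 external and pipette solutions, compounds applied by local perfusion.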

DBA/2 mice = test: animal or person; format: in vivo; conditions: for responders at 10 mg/kg / responders at 30 mg/kg / responders at 100 mg/kg: Mus musculus, iv, read-out: Number of Mice Protected from Tonic Convulsions
Method: Audiogenic Seizure Model in DBA/2 Mice
In Vivo Biological Protocol
A compound of the present invention was dissolved in water using 10% (weight/volume) Emulphor (GAF Cop., Wayne N.J. surfactant. Substances were administered by intravenous injection the retro-orbital venous sinus. […] All the male mice, 3-4 weeks old were obtained from Jackson Laboratories Bar Harbour, Me. Immediately before anticonvulsant testing, mice were placed upon a wire mesh, 4 inches square suspended from a steel rod. The square was slowly inverted through 180 degree and mice observed for 30 seconds. Any mouse falling from the wire mesh was scored as ataxia.
Mice were placed into an enclosed acrylic plastic chamber (21 cm in height, approximately 30 cm diameter) with a high-frequency speaker (4 cm diameter) in the center of the top lid. An audio signal generator (Protek model B-810) was used to produce a continuous sinusoidal tone that was swept linearly in frequency between 8 kHz and 16 kHz once each 10 msec. The average sound pressure level (SPL) during stimulation was approximately 100 dB at the floor of the chamber. Mice were placed within the chamber and allowed to acclimatize for 1 minute. DBA/2 mice in the vehicle-treated group responded to the sound stimulus (applied until tonic extension occurred, or for a maximum of 60 sec) with a characteristic seizure sequence consisting of wild running followed by clonic seizures, and later by tonic extension, and finally by respiratory arrest and death in 80% or more of the mice. In vehicle-treated mice, the entire sequence of seizures to respiratory arrest lasts approximately 15-20 seconds.
The incidence of all the seizure phases in the drug-treated and vehicle-treated mice was recorded, and the occurrence of tonic seizures were used for calculating anticonvulsant ED50 values by probit analysis. Mice were used only once for testing at each time and dose point.

T1 sequence (Q00975 whole entry): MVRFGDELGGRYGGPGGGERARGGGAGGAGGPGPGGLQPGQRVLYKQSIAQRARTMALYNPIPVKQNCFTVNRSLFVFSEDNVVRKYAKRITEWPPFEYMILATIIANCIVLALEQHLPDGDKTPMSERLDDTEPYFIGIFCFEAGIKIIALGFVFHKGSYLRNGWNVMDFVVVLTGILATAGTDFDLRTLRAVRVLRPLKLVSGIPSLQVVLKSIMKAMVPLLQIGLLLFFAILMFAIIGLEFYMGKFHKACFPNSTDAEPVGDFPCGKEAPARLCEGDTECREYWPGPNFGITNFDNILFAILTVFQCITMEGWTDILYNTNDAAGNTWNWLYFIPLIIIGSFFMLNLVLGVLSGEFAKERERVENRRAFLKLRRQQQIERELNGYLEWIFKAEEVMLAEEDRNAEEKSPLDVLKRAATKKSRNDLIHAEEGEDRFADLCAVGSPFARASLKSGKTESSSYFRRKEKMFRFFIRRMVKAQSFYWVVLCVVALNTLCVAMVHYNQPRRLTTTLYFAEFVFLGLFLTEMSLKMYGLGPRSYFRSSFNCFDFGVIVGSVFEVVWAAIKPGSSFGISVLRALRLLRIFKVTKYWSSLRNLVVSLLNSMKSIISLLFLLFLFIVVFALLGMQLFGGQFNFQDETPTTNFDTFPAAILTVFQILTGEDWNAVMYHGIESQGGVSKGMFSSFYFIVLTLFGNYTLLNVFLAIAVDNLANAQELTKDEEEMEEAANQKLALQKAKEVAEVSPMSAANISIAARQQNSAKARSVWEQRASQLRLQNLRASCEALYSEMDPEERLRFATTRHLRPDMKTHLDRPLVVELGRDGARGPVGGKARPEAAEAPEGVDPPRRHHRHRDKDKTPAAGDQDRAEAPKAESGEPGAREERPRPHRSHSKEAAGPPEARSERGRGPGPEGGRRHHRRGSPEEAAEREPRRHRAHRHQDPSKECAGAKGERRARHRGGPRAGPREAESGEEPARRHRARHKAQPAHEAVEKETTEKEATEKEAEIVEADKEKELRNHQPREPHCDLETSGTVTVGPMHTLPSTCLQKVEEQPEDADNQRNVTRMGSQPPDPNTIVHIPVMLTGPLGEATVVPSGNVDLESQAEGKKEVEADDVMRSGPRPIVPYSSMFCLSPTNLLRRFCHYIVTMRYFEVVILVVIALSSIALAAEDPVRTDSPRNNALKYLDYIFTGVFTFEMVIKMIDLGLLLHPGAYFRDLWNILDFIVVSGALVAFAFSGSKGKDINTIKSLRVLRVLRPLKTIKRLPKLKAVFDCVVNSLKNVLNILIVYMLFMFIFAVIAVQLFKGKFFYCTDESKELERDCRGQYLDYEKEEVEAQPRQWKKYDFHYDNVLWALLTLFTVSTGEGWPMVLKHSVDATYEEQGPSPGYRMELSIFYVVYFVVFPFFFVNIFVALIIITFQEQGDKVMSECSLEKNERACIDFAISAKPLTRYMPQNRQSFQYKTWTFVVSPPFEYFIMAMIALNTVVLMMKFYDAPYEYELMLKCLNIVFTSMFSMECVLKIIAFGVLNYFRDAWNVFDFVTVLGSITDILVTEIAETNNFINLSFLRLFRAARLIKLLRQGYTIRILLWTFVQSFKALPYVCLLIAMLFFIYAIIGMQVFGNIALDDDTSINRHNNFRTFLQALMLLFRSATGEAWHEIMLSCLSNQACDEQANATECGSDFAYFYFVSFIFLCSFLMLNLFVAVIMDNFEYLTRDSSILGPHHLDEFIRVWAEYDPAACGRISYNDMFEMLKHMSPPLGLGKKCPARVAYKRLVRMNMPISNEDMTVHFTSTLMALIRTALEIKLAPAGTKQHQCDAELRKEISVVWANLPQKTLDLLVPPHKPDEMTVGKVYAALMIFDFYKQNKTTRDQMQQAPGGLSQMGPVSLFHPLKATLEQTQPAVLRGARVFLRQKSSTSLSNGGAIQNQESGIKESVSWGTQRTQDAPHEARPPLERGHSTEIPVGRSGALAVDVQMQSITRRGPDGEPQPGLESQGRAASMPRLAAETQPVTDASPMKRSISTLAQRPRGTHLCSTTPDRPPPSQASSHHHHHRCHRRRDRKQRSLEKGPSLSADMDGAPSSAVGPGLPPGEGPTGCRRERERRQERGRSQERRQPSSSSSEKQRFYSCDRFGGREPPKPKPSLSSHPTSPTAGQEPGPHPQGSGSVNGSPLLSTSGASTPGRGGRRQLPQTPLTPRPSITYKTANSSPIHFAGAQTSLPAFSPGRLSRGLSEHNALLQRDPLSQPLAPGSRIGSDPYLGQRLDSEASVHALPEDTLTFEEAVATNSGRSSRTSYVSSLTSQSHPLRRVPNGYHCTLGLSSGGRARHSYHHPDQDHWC
T1 sequence (P54289 25-956 partner limits assumed): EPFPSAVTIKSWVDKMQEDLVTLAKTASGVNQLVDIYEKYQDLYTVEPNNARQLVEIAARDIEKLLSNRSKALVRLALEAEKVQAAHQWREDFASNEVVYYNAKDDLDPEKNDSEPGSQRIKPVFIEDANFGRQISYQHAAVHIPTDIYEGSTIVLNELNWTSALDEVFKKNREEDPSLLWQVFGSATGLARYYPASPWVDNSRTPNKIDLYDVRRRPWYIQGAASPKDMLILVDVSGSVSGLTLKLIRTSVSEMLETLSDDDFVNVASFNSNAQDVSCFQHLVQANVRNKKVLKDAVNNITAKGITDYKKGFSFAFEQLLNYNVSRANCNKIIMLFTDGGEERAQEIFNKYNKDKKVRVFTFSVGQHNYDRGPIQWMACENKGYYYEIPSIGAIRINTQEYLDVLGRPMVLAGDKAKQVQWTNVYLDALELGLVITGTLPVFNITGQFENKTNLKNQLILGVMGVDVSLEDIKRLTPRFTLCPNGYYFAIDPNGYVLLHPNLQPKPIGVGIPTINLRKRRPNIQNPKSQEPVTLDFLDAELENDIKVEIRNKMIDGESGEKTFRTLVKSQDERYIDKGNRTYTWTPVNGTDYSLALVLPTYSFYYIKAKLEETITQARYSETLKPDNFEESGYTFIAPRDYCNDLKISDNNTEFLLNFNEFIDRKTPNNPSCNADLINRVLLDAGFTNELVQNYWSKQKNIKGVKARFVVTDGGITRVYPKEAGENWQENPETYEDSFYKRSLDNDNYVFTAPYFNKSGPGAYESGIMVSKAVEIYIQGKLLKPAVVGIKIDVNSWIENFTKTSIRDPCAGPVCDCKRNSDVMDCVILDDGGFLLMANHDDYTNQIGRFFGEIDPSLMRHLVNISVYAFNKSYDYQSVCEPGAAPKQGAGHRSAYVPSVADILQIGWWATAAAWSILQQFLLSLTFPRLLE
T1 sequence (P54289 957-1103 partner limits assumed): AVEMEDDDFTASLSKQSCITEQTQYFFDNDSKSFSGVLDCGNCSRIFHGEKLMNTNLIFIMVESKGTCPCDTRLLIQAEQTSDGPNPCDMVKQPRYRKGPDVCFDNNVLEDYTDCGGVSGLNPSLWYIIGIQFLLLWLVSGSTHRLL
T1 sequence (P54284 whole entry partner): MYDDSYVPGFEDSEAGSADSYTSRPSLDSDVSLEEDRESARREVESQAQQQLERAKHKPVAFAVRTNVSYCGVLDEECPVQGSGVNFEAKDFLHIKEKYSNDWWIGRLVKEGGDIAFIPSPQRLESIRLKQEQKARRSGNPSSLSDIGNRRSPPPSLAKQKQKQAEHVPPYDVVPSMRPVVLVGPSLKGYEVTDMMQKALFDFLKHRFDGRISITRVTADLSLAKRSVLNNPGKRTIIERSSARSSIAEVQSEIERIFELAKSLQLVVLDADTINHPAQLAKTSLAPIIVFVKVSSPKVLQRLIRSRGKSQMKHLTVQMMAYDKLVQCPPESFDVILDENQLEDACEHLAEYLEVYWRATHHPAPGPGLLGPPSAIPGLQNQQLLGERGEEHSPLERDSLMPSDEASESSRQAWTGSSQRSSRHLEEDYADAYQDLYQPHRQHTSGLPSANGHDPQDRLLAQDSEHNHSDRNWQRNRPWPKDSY

Structure (SMILES) | IC50 [1] [nM] | Inhibition of K+ Current, % Inhibition at 10 μM [2] [%] | inhibition at 1 µM [1] [%] | inhibition at 10 µM [1] [%] | responders at 30 mg/kg (DBA/2 mice; 0.25 h) [%] | further results
CC(C)(C)OC(=O)[C@H](Cc1ccc(OCc2ccccc2)cc1)NC(=O)CNC(=O)N1CCCCCC1 (stereo in doubt) [Example 8, [S-(R*,R*)]-2-{2-[(Azepane-1-carbonyl)-amino]-acetylamino}-3-(4-benzyloxy-phenyl)-propionic acid tert-butyl ester] | 2400 | 72 | – | – | – | Inhibition of Calcium Flux in IMR-32 Cells % Inhibition at 1 μM ([1]; 1 μM): 29%; Inhibition of Calcium Flux in IMR-32 Cells % Inhibition at 10 μM ([1]; 10 μM): 86%; Number of Mice Protected from Tonic Convulsions (DBA/2 mice; 30 mg/Kg iv, 15 min post treatment): 4/5
CC(C)C[C@H](NC(=O)N1CCCCCC1)C(=O)N[C@@H](Cc1ccc(OCc2ccccc2)cc1)C(=O)OC(C)(C)C [Example 1] | 350 | 31 | 71 | 95 | 100 | IC50 ([2]; read-out: Inhibition of K+ Current IC50): 24000 nM; responders at 10 mg/kg (DBA/2 mice; 0.25 h): 0%; responders at 100 mg/kg (DBA/2 mice; 0.25 h): 100%; responders at 100 mg/kg (DBA/2 mice; 0.5 h): 100%; responders at 10 mg/kg (DBA/2 mice; 0.75 h): 0%; responders at 100 mg/kg (DBA/2 mice; 1 h): 0%
CC(C)(C)OC(=O)[C@H](Cc1ccc(OCc2ccccc2)cc1)NC(=O)[C@H](Cc1ccccc1)NC(=O)N1CCCCCC1 [Example 16] | 1100 | 20 | 44 | 92 | – | –
CC(C)C[C@H](NC(=O)N1CCCCCC1)C(=O)N[C@@H](Cc1ccc(OCc2ccccc2)cc1)C(N)=O [Example 21, [S-(R*,R*)]-Azepane-1-carboxylic acid {1-[2-(4-benzyloxy-phenyl)-1-carbamoyl-ethylcarbamoyl]-3-methyl-butyl}-amide] | 2700 | 56 | 26 | 83 | – | responders at 30 mg/kg (DBA/2 mice; 0.75 h): 0%
CC(C)C[C@H](NC(=O)N1CCCCCC1)C(=O)N[C@@H](Cc1ccc(OCc2ccccn2)cc1)C(=O)OC(C)(C)C [Example 25, [S-(R*,R*)]-2-{2-[(Azepane-1-carbonyl)-amino]-4-methyl-pentanoylamino}-3-[4-(pyridin-2-ylmethoxy)-phenyl]-propionic acid tert-butyl ester] | 2090 | 51 | 32 | 82 | 100 | –
CC(C)C[C@H](NC(=O)N1CCCCCC1)C(=O)N[C@@H](Cc1ccc(OCc2ccncc2)cc1)C(=O)OC(C)(C)C [Example 26, [S-(R*,R*)]-2-{2-[(Azepane-1-carbonyl)-amino]-4-methyl-pentanoylamino}-3-[4-(pyridin-4-ylmethoxy)-phenyl]-propionic acid tert-butyl ester] | 1600 | 41 | 44 | 84 | – | responders at 10 mg/kg (DBA/2 mice; 0.25 h): 100%
CC(C)C[C@H](NC(=O)N1CCCCCC1)C(=O)N[C@@H](Cc1ccc(C#CC2(O)CCCCC2)cc1)C(=O)NC(C)(C)C [Example 138, [S-(R*,R*)]-Azepane-1-carboxylic acid (1-({-tert-butylcarbamoyl-2-[4-(1-hydroxy-cyclohexylethynyl)-phenyl]-ethylcarbamoyl}-3-methyl-butyl)-amide] | – | 43 | 23 | 67 | – | –
CC(C)C[C@H](NC(=O)N1CCCCCC1)C(=O)N[C@@H](Cc1ccc(C=Cc2ccccc2)cc1)C(=O)NC(C)(C)C [Example 141, [S-(R*,R*)]-Azepane-1-carboxylic acid {1-[1-tert-butylcarbamoyl-2-(4-styryl-phenyl)-ethylcarbamoyl]-3-methyl-butyl}-amide] | – | 42 | 37 | 66 | – | –
CC(C)C[C@H](NC(=O)N1CCCCCC1)C(=O)N[C@@H](Cc1ccc(OCc2ccccc2)cc1)C(=O)NCCCn1ccnc1 [Example 237, [S-(R*,R*)]-Azepane-1-carboxylic acid {(1-[2-(4-benzyloxy phenyl)-1-(3-imidazol-1-yl-propylcarbamoyl)-ethylcarbamoyl]-3-methyl-butyl}-amide] | 960 | – | 52 | 93 | 0 | –
